The supplement of paper PMC13380429

What was measured:
Settings in all cases: 72 h
Calu-3 [1] = test: relative viability EC50 (midpoint between 100% and the lowest measured viability); higher = less toxic
Vero E6 [2] = test: as above
U2OS [3] = test: as above
Calu-3 [4] = test: cell viability relative to DMSO; higher = less toxic
HepG2 [5] = test: as above
Vero E6 [6] = test: as above
U2OS [7] = test: as above
Caco-2 [8] = test: as above
Calu-3 [9] = test: drug sensitivity score (DSS) for viability; higher = more toxic; extreme values may be limits of the assay
HepG2 [10] = test: as above
Vero E6 [11] = test: as above
U2OS [12] = test: as above
Caco-2 [13] = test: as above
HepG2 [14] = test: relative viability EC50 (midpoint between 100% and the lowest measured viability); higher = less toxic

SMILES	relative viability EC50 (Calu-3 [1])	relative viability EC50 (Vero E6 [2])	relative viability EC50 (U2OS [3])	cell viability (Calu-3 [4]; 1 nM)	cell viability (Calu-3 [4]; 10 nM)	cell viability (Calu-3 [4]; 100 nM)	cell viability (Calu-3 [4]; 1000 nM)	cell viability (Calu-3 [4]; 10000 nM)	cell viability (HepG2 [5]; 1 nM)	cell viability (HepG2 [5]; 10 nM)	cell viability (HepG2 [5]; 100 nM)	cell viability (HepG2 [5]; 1000 nM)	cell viability (HepG2 [5]; 10000 nM)	cell viability (Vero E6 [6]; 1 nM)	cell viability (Vero E6 [6]; 10 nM)	cell viability (Vero E6 [6]; 100 nM)	cell viability (Vero E6 [6]; 1000 nM)	cell viability (Vero E6 [6]; 10000 nM)	cell viability (U2OS [7]; 1 nM)	cell viability (U2OS [7]; 10 nM)	cell viability (U2OS [7]; 100 nM)	cell viability (U2OS [7]; 1000 nM)	cell viability (U2OS [7]; 10000 nM)	cell viability (Caco-2 [8]; 1 nM)	cell viability (Caco-2 [8]; 10 nM)	cell viability (Caco-2 [8]; 100 nM)	cell viability (Caco-2 [8]; 1000 nM)	cell viability (Caco-2 [8]; 10000 nM)	drug sensitivity score (Calu-3 [9])	drug sensitivity score (HepG2 [10])	drug sensitivity score (Vero E6 [11])	drug sensitivity score (U2OS [12])	drug sensitivity score (Caco-2 [13])	relative viability EC50 (HepG2 [14])
CC[C@H](CO)Nc1nc(Nc2cccc(-c3ccccn3)c2)c2ncn(C(C)C)c2n1 [DRF053-(R)]	> 10 µM	> 10 µM	> 10 µM	94.7%	94.9%	90.7%	104%	80.3%	98.8%	108%	107%	94.5%	66.2%	92%	92.3%	92.7%	89.8%	81.7%	102%	101%	94.7%	99.6%	94.4%	99.6%	86.9%	91.2%	93.2%	67.4%	0.4	2.5	1	0	2.4	
Cc1cc([N+](=O)[O-])ccc1NS(=O)(=O)c1cc(Cl)ccc1Cl [FH-535]	> 10 µM	> 10 µM	> 10 µM	104%	92.4%	105%	101%	93.2%	100%	106%	94.5%	96.7%	50.1%	98.3%	102%	94.1%	92.8%	79.2%	101%	97.6%	93.3%	96.9%	89.5%	107%	103%	110%	87.2%	60.3%	0	3.1	0.9	0	3.8	
CCn1c(=O)c(-c2ccc(Cl)cc2Cl)cc2cnc(Nc3ccc(N4CCNCC4)c(F)c3)nc21 [FRAX486]	> 10 µM	2.09 µM	2.01 µM	104%	100%	105%	91.9%	97.9%	96.6%	97.8%	93.1%	99.3%	51.6%	97%	102%	99.6%	90.9%	31.7%	103%	99.8%	101%	91.6%	43%	94.9%	92.4%	97.7%	80%	63.4%	0	2.6	5.3	4.5	3.9	
COc1cc2c(cc1-c1c(C)noc1C)ncc1[nH]c(=O)n([C@H](C)c3ccccn3)c12 [I-BET151]		0.607 µM	0.89 µM	97.4%	99.5%	114%	75%	65.3%	104%	99.7%	91.9%	60.3%	33.6%	104%	105%	94.6%	40.5%	13%	97.4%	95.6%	94.4%	71.3%	44.3%	104%	87.1%	89.8%	81%	56%	4.5	8.6	12.2	6.3	4.9	0.671 µM
COc1ccc(F)c(F)c1C(=O)c1cnc(NC2CCN(S(C)(=O)=O)CC2)nc1N [R547]																													9	16.1	10.7	10.3		
CC(O)(CS(=O)(=O)c1ccc(F)cc1)C(=O)Nc1ccc(C#N)c(C(F)(F)F)c1 (configuration not stated) [bicalutamide]																													0	0	0	0		
O=C(/C=C/c1ccc(O)c(O)c1)OCCc1ccccc1 [caffeic-acid-phenethyl-ester]	> 10 µM	> 10 µM		95.4%	97.4%	99.1%	94.4%	90.3%	92%	106%	99.6%	90.2%	73.9%	96.9%	101%	96.4%	96.4%	90.6%	98.4%	102%	98.9%	99.2%	69.9%	92%	99.6%	101%	88.2%	66.9%	0	2.3	0	1.4	3.2	
C[C@]12CC[C@@H]3c4ccc(O)cc4CC[C@H]3[C@@H]1CCC2=O [estrone]																													0	0	0	0		
COc1cc2ncnc(Nc3ccc(F)c(Cl)c3)c2cc1OCCCN1CCOCC1 [gefitinib]	0.414 µM																												13.1	3.9	9.3	2.1	4.1	
CO[C@@H]1[C@@H](O[C@@H]2O[C@H](C)[C@@H](O[C@H]3C[C@@](C)(O)[C@@H](OC(=O)CC(C)C)[C@H](C)O3)[C@H](N(C)C)[C@H]2O)[C@@H](CC=O)C[C@@H](C)[C@@H](O)/C=C/C=C/C[C@@H](C)OC(=O)C[C@H]1OC(C)=O [josamycin]	> 10 µM	> 10 µM	> 10 µM	103%	102%	106%	98.2%	106%	107%	105%	117%	95%	74.4%	95%	98.6%	105%	92.1%	99.1%	101%	89.3%	97.5%	101%	100%	101%	94.2%	100%	107%	68%	0	1.7	0	0	1.1	
CC(=O)O[C@]1(C(C)=O)CC[C@H]2[C@@H]3C=C(C)C4=CC(=O)CC[C@]4(C)[C@H]3CC[C@@]21C [megestrol-acetate]																													0	0	0	0		
COC(=O)c1ccc(O)cc1 [methylparaben]																													0	0	0	0		
O=C(O)C[C@H](O)C[C@H](O)/C=C/c1c(C2CC2)nc2ccccc2c1-c1ccc(F)cc1 [pitavastatin]		1.62 µM	1.28 µM	103%	98.1%	99.2%	84.7%	56.4%	88.5%	97.1%	82%	95.7%	57.1%	93.9%	105%	88.7%	78%	6.4%	98.7%	97%	100%	68.3%	9.6%	103%	93.6%	97.3%	89.4%	70.3%	4.4	2.9	8.5	9.4	2.4	
CC[C@H](CO)Nc1nc(NCc2ccccc2)c2ncn(C(C)C)c2n1 [roscovitine]																													0	0	0	0		
N=C(N)NS(=O)(=O)c1ccc(N)cc1 [sulfaguanidine]																													0	0	0	0		
Cc1ccc(C(C)C)c(O)c1 [thymol]																													0	0	0	0		
Cn1ncc(Cl)c1-c1cc(C(=O)N[C@H](CN)Cc2ccc(F)c(F)c2)oc1Cl [uprosertib]	0.693 µM	> 10 µM	> 10 µM	104%	107%	78.4%	80.5%	49.9%	101%	97.4%	101%	85.2%	68.4%	106%	102%	102%	94.9%	83.6%	95.1%	99.8%	94.5%	96.5%	76.3%	98.7%	99.3%	86.2%	71.5%	53.9%	5.8	3.3	0.8	1.4	6.5	
Cc1cccc(OCC(O)CNC(C)(C)C)c1C (configuration not stated) [xibenolol]	> 10 µM	> 10 µM	> 10 µM	106%	92.9%	95.6%	101%	103%						104%	99.3%	100%	107%	95.4%	102%	97.4%	99.2%	94.6%	110%	74.6%	95.8%	80.1%	94.3%	100%	0		0	0	0.7	
